Patent publication US20090197878A1, “SUBSTITUTED BENZO[d][1,3]OXAZIN-2(4H)-ONES AND RELATED DERIVATIVES AND THEIR USES FOR MODULATING THE PROGESTERONE RECEPTOR” (Wyeth, priority 2008, published 2009)
pIC50: −log10 of the molar value.

Columns and labels:
[1] = tested on: alkaline phosphatase activity in T47D cells; assay: Effects of progestins and antiprogestins on alkaline phosphatase activity in T47D cells; format: cell-based; conditions: Homo sapiens; for inhibition at 3 µM: at 3000 nM; for inhibition at 0.3 µM: at 300 nM; for pIC50: antagonist mode in the presence of 1 nM progesterone, 24 hours
Description: The purpose of this example is to identify progestins or antiprogestins by determining a compound's effect on alkaline phosphatase activity in T47D cells.
A. Reagents: • Culture medium: Dulbecco's Modified Eagle Medium (DMEM):F12 (1:1) (GIBCO, BRL) supplemented with 5% (v/v) charcoal stripped fetal bovine serum (not heat-inactivated), 100 U/mL penicillin, 100 μg/mL streptomycin, and 2 mM of the GlutaMax® reagent (GIBCO, BRL). • Alkaline phosphatase assay buffer: • I. 0.1M Tris-HCl, pH 9.8, containing 0.2% Triton® X-100 reagent • II. 0.1M Tris-HCl, pH 9.8, containing 4 mM p-nitrophenyl phosphate (Sigma).
Frozen T47D cells are thawed in a 37° C. water bath and diluted to 280,000 cells/mL in culture medium. To each well in a 96-well plate (Falcon, Becton Dickinson Labware), was added 180 μL of diluted cell suspension. Twenty μL of reference or test compounds diluted in the culture medium is then added to each well. When testing for progestin antagonist activity, reference antiprogestins or test compounds are added in the presence of 1 nM progesterone. The cells are incubated at 37° C. in a 5% CO2/humidified atmosphere for 24 hours. For high throughput screening, one concentration of each compound will be tested at 0.3 μg/mL. Based on an average molecular weight of 300 g/mol for the compounds in the library, the concentration is approximately 1 μM. Compounds active in this assay can be tested in dose response assays to determine EC50 and IC50.
C. Alkaline Phosphatase Enzyme Assay: • At the end of treatment, the medium is removed from the plate. Fifty μL of assay buffer I is added to each well. The plates are shaken in a titer plate shaker for 15 minutes. Then 150 μL of assay buffer II is added to each well. Optical density measurements are taken at 5 minute intervals for 30 minutes at a test wavelength of 405 nm.
D. Analysis of Results: Analysis of Dose-Response Data • For reference and test compounds, a dose response curve is generated for dose (X-axis) vs. the rate of enzyme reaction (slope) (Y-axis). Square root-transformed data are used for analysis of variance and nonlinear dose response curve fitting for both agonist and antagonist modes. Huber weighting is used to down-weight the effects of outliers. EC50 or IC50 values are calculated from the retransformed values. JMP® software (SAS Institute, Inc.) is used for both one-way analysis of variance and non-linear dose response analysis in both single dose and dose response studies.
E. Reference Compounds • Progesterone and trimegestone are reference progestins and RU486 is the reference antiprogestin. All reference compounds are run in full dose response curves and the EC50 and IC50 values are calculated.

[2] = in the presence of 1 nM progesterone

Row | melting point | SMILES | inhibition at 3 µM [1, 2] | other results
1 | 190 to 193 °C | CC1(C)OC(=O)Nc2ccc(/C=C/c3ccno3)cc21 [Example 3, 6-[(E)-2-Isoxazol-5-ylvinyl]-4,4-di-methyl-1,4-dihydro-2H-3,1-benzoxazin-2-one] |  | 
2 | 238 to 240 °C (dec.) | CC1(C)OC(=O)Nc2ccc(/C=C/C#N)cc21 [Example 8, (2E)-3-(4,4-Dimethyl-2-oxo-1,4-dihydro-2H-3,1-benzoxazin-6-yl)acrylonitrile] |  | 
3 | 173 to 174 °C | CC/C(=C\C#N)c1ccc2c(c1)C1(CCCCC1)OC(=O)N2 [Example 19, (2E)-3-(2-Oxo-1,2-dihydrospiro[3,1-benzoxazine-4,1′-cyclohexan]-6-yl)pent-2-enenitrile] |  | inhibition at 0.03 µM ([1]; at 30 nM, in the presence of 1 nM progesterone): 60%
4 | 235 to 238 °C (dec.) | CC/C(=C\C(N)=O)c1ccc2c(c1)C1(CCCCC1)OC(=O)N2 [Example 18, (2E)-3-(2-Oxo-1,2-dihydrospiro[3,1-benzoxazine-4,1′-cyclohexan]-6-yl)pent-2-enamide] | 22% | 
5 | 204 to 205 °C | COC(=O)/C=C/c1ccc2c(c1)C(C)(C)OC(=O)N2 [Example 2, Methyl(2E)-3-(4,4-dimethyl-2-oxo-1,4-dihydro-2H-3,1-benzoxazin-6-yl)acrylate] |  | 
6 | 196 to 198 °C | CC1(C)OC(=O)Nc2ccc(/C=C/C(N)=O)cc21 [Example 4, (2E)-3-(4,4-Dimethyl-2-oxo-1,4-dihydro-2H-3,1-benzoxazin-6-yl)acrylamide] |  | pIC50 [1]: 4.30
7 | 212 to 213 °C | CCC/C(=C\C(N)=O)c1ccc2c(c1)C(CC)(CC)OC(=O)N2 [Example 24, (2E)-3-(4,4-Diethyl-2-oxo-1,4-dihydro-2H-3,1-benzoxazin-6-yl)hex-2-enamide] | 65% | 
8 | 204 to 207 °C (dec.) | C/C(=C\C(N)=O)c1ccc2c(c1)C1(CCCCC1)OC(=O)N2 [Example 16, (2E)-3-(2-Oxo-1,2-dihydrospiro[3,1-benzoxazine-4,1′-cyclohexan]-6-yl)but-2-enamide] | 0% | 
9 | 174 to 175 °C | COC(=O)/C=C/c1ccc2c(c1)C(C)(C)CC(=O)N2 [Example 1, Methyl(2E)-3-(4,4-dimethyl-2-oxo-1,2,3,4-tetrahydroquinolin-6-yl)acrylate] |  | 

Second part, the molecule before the results:

Row | SMILES | melting point | inhibition at 3 µM [1, 2] | other results
10 | CCC/C(=C\C=O)c1ccc2c(c1)C(CC)(CC)OC(=O)N2 [Example 26, (2E)-3-(4,4-Diethyl-2-oxo-1,4-dihydro-2H-3,1-benzoxazin-6-yl)hex-2-enal] | 173 to 179 °C | 100% | 
11 | C/C(=C\C(=O)O)c1ccc2c(c1)C(C)(C)OC(=O)N2 [Example 15, (2E)-3-(4,4-Dimethyl-2-oxo-1,4-dihydro-2H-3,1-benzoxazin-6-yl)but-2-enoic acid] | 274 to 275 °C (dec.) | 0% | 
12 | C/C(=C\C#N)c1ccc2c(c1)C1(CCCCC1)OC(=O)N2 [Example 17, (2E)-3-(2-oxo-1,2-dihydrospiro[3,1-benzoxazine-4,1′-cyclohexan]-6-yl)but-2-enenitrile] | 208 to 210 °C (dec.) |  | inhibition at 0.3 µM [1, 2]: 60%
13 | CC1(C)OC(=O)Nc2ccc(C3=CC(=O)OCC3)cc21 [Example 10, 4,4-Dimethyl-6-(6-oxo-3,6-dihydro-2H-pyran-4-yl)-1,4-dihydro-2H-3,1-benzoxazin-2-one] | 235 to 236 °C (dec.) |  | 
14 | CC(C)/C(=C\C#N)c1ccc2c(c1)C1(CCCCC1)OC(=O)N2 [Example 21, (2E)-4-Methyl-3-(2-oxo-1,2-dihydrospiro[3,1-benzoxazine-4,1′-cyclohexan]-6-yl)pent-2-enenitrile] | 201 to 203 °C (dec.) |  | inhibition at 0.3 µM [1, 2]: 60%
15 | CC1(C)OC(=O)Nc2ccc(/C=C/C(=O)O)cc21 [Example 14, (2E)-3-(4,4-Dimethyl-2-oxo-1,4-dihydro-2H-3,1-benzoxazin-6-yl)acrylic acid] | 260 to 261 °C (dec.) | 0% | 
16 | C/C(=C\C(N)=O)c1ccc2c(c1)C(C)(C)OC(=O)N2 [Example 5, (2E)-3-(4,4-Dimethyl-2-oxo-1,4-dihydro-2H-3,1-benzoxazin-6-yl)but-2-enamide] | 198 to 200 °C |  | pIC50 [1]: 4.30
17 | COC(=O)/C=C(\c1ccccc1)c1ccc2c(c1)C(C)(C)OC(=O)N2 [Example 11, Methyl(2E)-3-(4,4-dimethyl-2-oxo-1,4-dihydro-2H-3,1-benzoxazin-6-yl)-3-phenylacrylate] | 181 to 182 °C |  | 
18 | CC1(C)OC(=O)Nc2ccc(/C(=C/C(N)=O)c3ccccc3)cc21 [Example 7, (2E)-3-(4,4-Dimethyl-2-oxo-1,4-dihydro-2H-3,1-benzoxazin-6-yl)-3-phenylacrylamide] | 219 to 220 °C |  | pIC50 [1]: 4.30
